Values of other authors in patent US7488791B2, “Mixture of peptides derived from E6 and/or E7 papillomavirus proteins and uses thereof” (priority 2001, dated 2009).
Where two headings read alike, the source gives them in different places.

How the values were obtained:
cells from patients [1] = details: Kadish et al.; cited from earlier work
cells in the blood = details: Tsukui et al., 140 HPV16+ patients; cited from earlier work
cells from patients [2] = details: Nakagawa et al., cited from earlier work; for Proliferation of cells from patients, responders/tested, normal: normal individuals
[3] = test system: E7-specific T lymphocyte lines; details: Altmann et al.; cited from earlier work
cells from patients [4] = details: Luxton et al., cited from earlier work; for Proliferation of cells from patients, responders/tested, normal: normal individuals
cells from patients [5] = details: cited from earlier work; for Proliferation of cells from patients infected with HPV, responders/tested: De Gruijl et al.

In the case of “E7: 72-97: HPV16 E7 peptide, positions 72-97, Kadish et al. (THVDIRTLEDLLMGTLGIVCPICSQK; UniProt P03129 72-97, looked up, fragment)”, the “Proliferation of cells from patients (CIN or normal), responders/tested” value (cells from patients [1]) is given as 19/48.
In the case of “E6: 111-158: HPV16 E6 peptide, positions 111-158, Tsukui et al. (INCQKPLCPEEKQRHLDKKQRFHNIRGRWTGRCMSCCRSSRTRRETQL; UniProt P03126 111-158, looked up, fragment)”, the “Secretion of IL2 (activation of cells) by patients, responders/tested” value (from here on “Secretion of IL2 … responders/tested”) (cells in the blood) is given as 11/140.
In the case of “E6: 24-45: HPV16 E6 peptide, positions 24-45, Nakagawa et al. (TELQTTIHDIILECVYCKQQLL; UniProt P03126 24-45, looked up, fragment)”, the “Proliferation of cells from patients, responders/tested, CIN” value (“Proliferation … responders/tested, CIN” for short) (cells from patients [2]) is given as 1/22 and the “Proliferation of cells from patients, responders/tested, normal” value (shortened to “Proliferation … responders/tested, normal”) (cells from patients [2]) is given as 15/65.
In the case of “E6: 122-151: HPV16 E6 peptide, positions 122-151, Kadish et al. (KQRHLDKKQRFHNIRGRWTGRCMSCCRSSR; UniProt P03126 122-151, looked up, fragment)”, the “Proliferation of cells from patients (CIN or normal), responders/tested” value (cells from patients [1]) is listed as 19/48.
In the case of “E7: 17-34: HPV16 E7 peptide, positions 17-34, Altmann et al. (PETTDLYCYEQLNDSSEE; UniProt P03129 17-34, looked up, fragment)”, the “Recognition by T lymphocyte line or clone from a patient” value [3] is listed as “Recognized by line from a DR4”.
In the case of “E6: 1-31: HPV16 E6 peptide, positions 1-31, Kadish et al. (MHQKRTAMFQDPQERPRKLPQLCTELQTTIH; UniProt P03126 1-31, looked up, fragment)”, the “Proliferation of cells from patients (CIN or normal), responders/tested” value (cells from patients [1]) is given as 17/48.
For “E6: 102-131: HPV16 E6 peptide, positions 102-131, Kadish et al. (PLCDLLIRCINCQKPLCPEEKQRHLDKKQR; UniProt P03126 102-131, looked up, fragment)”, the “Proliferation of cells from patients (CIN or normal), responders/tested” value (cells from patients [1]) is listed as 14/43.
For `CC[C@H](C)[C@H](NC(=O)[C@@H](NC(=O)[C@@H](NC(=O)[C@H](CCC(N)=O)NC(=O)[C@H](CC(C)C)NC(=O)[C@H](CCC(=O)O)NC(=O)[C@@H](NC(=O)[C@H](CS)NC(=O)[C@H](CC(C)C)NC(=O)[C@H](CCC(N)=O)NC(=O)[C@@H]1CCCN1C(=O)[C@H](CC(C)C)NC(=O)[C@H](CCCCN)NC(=O)[C@@H](N)CCCNC(=N)N)[C@@H](C)O)[C@@H](C)O)[C@@H](C)O)C(=O)N[C@@H](Cc1c[nH]cn1)C(=O)O` [E6 17-31, R K L P Q L C T E L Q T T I H], the “Proliferation of cells from patients (CIN or normal), responders/tested” value (cells from patients [1]) is listed as 12/23.
For “E6: 62-91: HPV16 E6 peptide, positions 62-91, Kadish et al. (RDGNPYAVCDKCLKFYSKISEYRHYCYSLY; UniProt P03126 62-91, looked up, fragment)”, the “Proliferation of cells from patients (CIN or normal), responders/tested” value (cells from patients [1]) is given as 0/30.
For “E7: 70-98: HPV16 E7 peptide, positions 70-98, Luxton et al. (QSTHVDIRTLEDLLMGTLGIVCPICSQKP; UniProt P03129 70-98, looked up, fragment)”, the “Proliferation … responders/tested, CIN” value (cells from patients [4]) is given as 4/31 and the “Proliferation … responders/tested, normal” value (cells from patients [4]) is given as 7/15.
In the case of “E7: 62-80: HPV16 E7 peptide, positions 62-80, Kadish et al. (DSTLRLCVQSTHVDIRTLE; UniProt P03129 62-80, looked up, fragment)”, the “Proliferation of cells from patients (CIN or normal), responders/tested” value (cells from patients [1]) is listed as 11/35.
In the case of “E6: 4-29: HPV16 E6 peptide, positions 4-29, Nakagawa et al. (KRTAMFQDPQERPRKLPQLCTELQTT; UniProt P03126 4-29, looked up, fragment)”, the “Proliferation … responders/tested, CIN” value (cells from patients [2]) is listed as 3/22 and the “Proliferation … responders/tested, normal” value (cells from patients [2]) is listed as 12/65.
For “E7: 20-34: HPV16 E7 peptide, positions 20-34, Luxton et al. (TDLYCYEQLNDSSEE; UniProt P03129 20-34, looked up, fragment)”, the “Proliferation … responders/tested, CIN” value (cells from patients [4]) is given as 0/31 and the “Proliferation … responders/tested, normal” value (cells from patients [4]) is given as 0/15.
In the case of “E7: 69-82: HPV16 E7 peptide, positions 69-82, Altmann et al. (VQSTHVDIRTLEDL; UniProt P03129 69-82, looked up, fragment)”, the “Recognition by T lymphocyte line or clone from a patient” value [3] is given as “Recognized by clone from a DR4”.
In the case of “E7: 44-57: HPV16 E7 peptide, positions 44-57, Nakagawa et al. (QAEPDRAHYNIVTF; UniProt P03129 44-57, looked up, fragment)”, the “Proliferation … responders/tested, CIN” value (cells from patients [2]) is given as 3/22 and the “Proliferation … responders/tested, normal” value (cells from patients [2]) is given as 9/65.
In the case of “E7: 1-35: HPV16 E7 peptide, positions 1-35, Tsukui et al.”, the “Secretion of IL2 … responders/tested” value (cells in the blood) is listed as 3/140.
For “E6: 59-112: HPV16 E6 peptide, positions 59-112, Tsukui et al. (IVYRDGNPYAVCDKCLKFYSKISEYRHYCYSLYGTTLEQQYNKPLCDLLIRCIN; UniProt P03126 59-112, looked up, fragment)”, the “Secretion of IL2 … responders/tested” value (cells in the blood) is listed as 6/140.
For “E6: 137-151: HPV16 E6 peptide, positions 137-151, Kadish et al. (GRWTGRCMSCCRSSR; UniProt P03126 137-151, looked up, fragment)”, the “Proliferation of cells from patients (CIN or normal), responders/tested” value (cells from patients [1]) is listed as 9/23.
In the case of “E7: 51-98: HPV16 E7 peptide, positions 51-98, Tsukui et al. (HYNIVTFCCKCDSTLRLCVQSTHVDIRTLEDLLMGTLGIVCPICSQKP; UniProt P03129 51-98, looked up, fragment)”, the “Secretion of IL2 … responders/tested” value (cells in the blood) is given as 7/140.
In the case of “E7: 62-79: HPV16 E7 peptide, positions 62-79, Nakagawa et al. (DSTLRLCVQSTHVDIRTL; UniProt P03129 62-79, looked up, fragment)”, the “Proliferation … responders/tested, CIN” value (cells from patients [2]) is listed as 3/22 and the “Proliferation … responders/tested, normal” value (cells from patients [2]) is listed as 10/65.
In the case of “E6: 82-111: HPV16 E6 peptide, positions 82-111, Kadish et al. (EYRHYCYSLYGTTLEQQYNKPLCDLLIRCI; UniProt P03126 82-111, looked up, fragment)”, the “Proliferation of cells from patients (CIN or normal), responders/tested” value (cells from patients [1]) is given as 5/34.
In the case of “E7: 67-98: HPV16 E7 peptide, positions 67-98, De Gruijl et al. (LCVQSTHVDIRTLEDLLMGTLGIVCPICSQKP; UniProt P03129 67-98, looked up, fragment)”, the “Proliferation of cells from patients infected with HPV, responders/tested” value (shortened to “Proliferation … with HPV, responders/tested”) (cells from patients [5]) is given as 17/28 and the “Stimulation of the cells of patients, in words” value (cells from patients [5]; de Gruijl et al.) is given as “stimulates the cells of a majority of patients”.
For “E6: 42-71: HPV16 E6 peptide, positions 42-71, Kadish et al. (QQLLRREVYDFAFRDLCIVYRDGNPYAVCD; UniProt P03126 42-71, looked up, fragment)”, the “Proliferation of cells from patients (CIN or normal), responders/tested” value (cells from patients [1]) is given as 8/43.
For “E6: 109-122: HPV16 E6 peptide, positions 109-122, Nakagawa et al. (RCINCQKPLCPEEK; UniProt P03126 109-122, looked up, fragment)”, the “Proliferation … responders/tested, CIN” value (cells from patients [2]) is listed as 1/22 and the “Proliferation … responders/tested, normal” value (cells from patients [2]) is listed as 8/65.
In the case of “E7: 27-60: HPV16 E7 peptide, positions 27-60, Tsukui et al. (QLNDSSEEEDEIDGPAGQAEPDRAHYNIVTFCCK; UniProt P03129 27-60, looked up, fragment)”, the “Secretion of IL2 … responders/tested” value (cells in the blood) is given as 4/140.
In the case of “E7: 1-14: HPV16 E7 peptide, positions 1-14, Luxton et al.”, the “Proliferation … responders/tested, CIN” value (cells from patients [4]) is given as 0/31 and the “Proliferation … responders/tested, normal” value (cells from patients [4]) is given as 1/15.
For “E6: 1-45: HPV16 E6 peptide, positions 1-45, Tsukui et al. (MHQKRTAMFQDPQERPRKLPQLCTELQTTIHDIILECVYCKQQLL; UniProt P03126 1-45, looked up, fragment)”, the “Secretion of IL2 … responders/tested” value (cells in the blood) is listed as 0/140.
For “E7: 43-80: HPV16 E7 peptide, positions 43-80, De Gruijl et al. (GQAEPDRAHYNIVTFCCKCDSTLRLCVQSTHVDIRTLE; UniProt P03129 43-80, looked up, fragment)”, the “Proliferation … with HPV, responders/tested” value (cells from patients [5]) is listed as 10/28.
For “E7: 21-30: HPV16 E7 peptide, positions 21-30, Nakagawa et al. (DLYCYEQLND; UniProt P03129 21-30, looked up, fragment)”, the “Proliferation … responders/tested, CIN” value (cells from patients [2]) is listed as 0/22 and the “Proliferation … responders/tested, normal” value (cells from patients [2]) is listed as 5/65.
In the case of “E6: 117-131: HPV16 E6 peptide, positions 117-131, Kadish et al. (LCPEEKQRHLDKKQR; UniProt P03126 117-131, looked up, fragment)”, the “Proliferation of cells from patients (CIN or normal), responders/tested” value (cells from patients [1]) is listed as 12/23.
For “E7: 1-32: HPV16 E7 peptide, positions 1-32, De Gruijl et al.”, the “Proliferation … with HPV, responders/tested” value (cells from patients [5]) is given as 8/28.
In the case of “E7: 55-74: HPV16 E7 peptide, positions 55-74, Luxton et al. (VTFCCKCDSTLRLCVQSTHV; UniProt P03129 55-74, looked up, fragment)”, the “Proliferation … responders/tested, CIN” value (cells from patients [4]) is listed as 2/31 and the “Proliferation … responders/tested, normal” value (cells from patients [4]) is listed as 1/15.
In the case of “E7: 19-56: HPV16 E7 peptide, positions 19-56, De Gruijl et al. (TTDLYCYEQLNDSSEEEDEIDGPAGQAEPDRAHYNIVT; UniProt P03129 19-56, looked up, fragment)”, the “Proliferation … with HPV, responders/tested” value (cells from patients [5]) is given as 10/28.
In the case of “E7: 45-64: HPV16 E7 peptide, positions 45-64, Luxton et al. (AEPDRAHYNIVTFCCKCDST; UniProt P03129 45-64, looked up, fragment)”, the “Proliferation … responders/tested, CIN” value (cells from patients [4]) is given as 2/31 and the “Proliferation … responders/tested, normal” value (cells from patients [4]) is given as 1/15.
For “E6: 22-51: HPV16 E6 peptide, positions 22-51, Kadish et al. (LCTELQTTIHDIILECVYCKQQLLRREVYD; UniProt P03126 22-51, looked up, fragment)”, the “Proliferation of cells from patients (CIN or normal), responders/tested” value (cells from patients [1]) is listed as 17/46.
